# Laboratory results reported in ChEMBL document CHEMBL4002571, “Novel designed VmCT1 analogs with increased antimicrobial activity” (Eur J Med Chem, 2017).
# The source made the active and inactive calls. No cut-off for these calls is given here.
# Columns and labels:
# [1] = system: Staphylococcus aureus; experiment: Antibacterial activity against Staphylococcus aureus ATCC 29213 after 18 hrs by liquid growth inhibition assay; format: functional; details: ATCC 29213, 18 h, read-out: MIC100
# [2] = system: Escherichia coli; experiment: Antibacterial activity against Escherichia coli SBS 363 after 18 hrs by liquid growth inhibition assay; format: functional; details: SBS 363, 18 h, read-out: MIC100
# [3] = system: Cryptococcus neoformans; experiment: Antifungal activity against Cryptococcus neoformans after 18 hrs by liquid growth inhibition assay; format: functional; details: read-out: MIC100
# [4] = system: Escherichia coli; experiment: Antibacterial activity against Escherichia coli D31 after 18 hrs by liquid growth inhibition assay; format: functional; details: D31, 18 h, read-out: MIC100
# [5] = system: Erythrocyte; experiment: Hemolytic activity in human erythrocytes after 1 hr; format: ADME, cell-based
# [6] = system: Candida albicans; experiment: Antifungal activity against Candida albicans MDM8 after 18 hrs by liquid growth inhibition assay; format: functional; details: MDM8, 18 h, read-out: MIC100
# [7] = system: Staphylococcus epidermidis; experiment: Antibacterial activity against Staphylococcus epidermidis ATCC 12228 after 18 hrs by liquid growth inhibition assay; format: functional; details: ATCC 12228, 18 h, read-out: MIC100
# [8] = system: Cladosporium herbarum; experiment: Antifungal activity against Cladosporium herbarum up to 50 umol/L after 72 hrs by liquid growth inhibition assay; format: functional
# [9] = system: Pseudomonas aeruginosa; experiment: Antibacterial activity against Pseudomonas aeruginosa ATCC 27853 after 18 hrs by liquid growth inhibition assay; format: functional; details: ATCC 27853, 18 h, read-out: MIC100
# [10] = system: Enterobacter cloacae; experiment: Antibacterial activity against Enterobacter cloacae beta-12 after 18 hrs by liquid growth inhibition assay; format: functional; details: beta-12, 18 h, read-out: MIC100
# [11] = system: Candida tropicalis; experiment: Antifungal activity against Candida tropicalis IOC 4560 after 18 hrs by liquid growth inhibition assay; format: functional; details: IOC 4560, 18 h, read-out: MIC100
# [12] = system: Aspergillus niger; experiment: Antifungal activity against Aspergillus niger up to 50 umol/L after 72 hrs by liquid growth inhibition assay; format: functional
# [13] = system: Bacillus spizizenii; experiment: Antibacterial activity against Bacillus subtilis ATCC 6633 after 18 hrs by liquid growth inhibition assay; format: functional; details: ATCC 6633, 18 h, read-out: MIC100
# [14] = system: Micrococcus luteus; experiment: Antibacterial activity against Micrococcus luteus A270 after 18 hrs by liquid growth inhibition assay; format: functional; details: A270, 18 h, read-out: MIC100
# [15] = system: Candida parapsilosis; experiment: Antifungal activity against Candida parapsilosis IOC 4564 up to 50 umol/L after 18 hrs by liquid growth inhibition assay; format: functional
# [16] = system: Serratia marcescens; experiment: Antibacterial activity against Serratia marcescens ATCC 4112 after 18 hrs by liquid growth inhibition assay; format: functional; details: ATCC 4112, 18 h, read-out: MIC100
# [17] = system: Cladosporium herbarum; experiment: Antifungal activity against Cladosporium herbarum after 72 hrs by liquid growth inhibition assay; format: functional; details: read-out: MIC100
# [18] = system: Candida parapsilosis; experiment: Antifungal activity against Candida parapsilosis IOC 4564 after 18 hrs by liquid growth inhibition assay; format: functional; details: Lodderomyces parapsilosis, IOC 4564, 18 h; read-out: MIC100
# [19] = system: Aspergillus niger; experiment: Antifungal activity against Aspergillus niger after 72 hrs by liquid growth inhibition assay; format: functional; details: read-out: MIC100
# [20] = system: Enterobacter cloacae; experiment: Antibacterial activity against Enterobacter cloacae beta-12 up to 50 umol/L after 18 hrs by liquid growth inhibition assay; format: functional
# [21] = system: Bacillus spizizenii; experiment: Antibacterial activity against Bacillus subtilis ATCC 6633 up to 50 umol/L after 18 hrs by liquid growth inhibition assay; format: functional
# [22] = system: Escherichia coli; experiment: Antibacterial activity against Escherichia coli SBS 363 up to 50 umol/L after 18 hrs by liquid growth inhibition assay; format: functional
# [23] = system: Escherichia coli; experiment: Antibacterial activity against Escherichia coli ATCC 25922 measured every 4 hrs by broth micro-dilution method; format: functional; details: ATCC 25922, 4 h
# [24] = system: Pseudomonas aeruginosa; experiment: Antibacterial activity against Pseudomonas aeruginosa ATCC 9027 measured every 4 hrs by broth micro-dilution method; format: functional; details: ATCC 9027, 4 h
# [25] = system: Bacillus spizizenii; experiment: Antibacterial activity against Bacillus subtilis ATCC 6633 measured every 4 hrs by broth micro-dilution method; format: functional; details: ATCC 6633, 4 h
# [26] = system: Staphylococcus aureus; experiment: Antibacterial activity against Staphylococcus aureus ATCC 25923 measured every 4 hrs by broth micro-dilution method; format: functional; details: ATCC 25923, 4 h
Substance,MIC [1] [µM],MIC [2] [µM],MIC [3] [µM],MIC [4] [µM],MHC [5] [µmol/L],MIC [6] [µM],MIC [7] [µM],MIC [9] [µM],MIC [10] [µM],MIC [11] [µM],MIC [13] [µM],MIC [14] [µM],MIC [16] [µM],MIC [17] [µM],MIC [18] [µM],MIC [19] [µM],also measured
H-FLGELWNVWKSVF-NH2,12.5,12.5,6.25,6.25,1.6,6.25,6.25,3.12,50,12.5,12.5,3.12,3.12,–,–,–,growth inhibition (GI) [8]: inactive; growth inhibition (GI) [12]: inactive; growth inhibition (GI) [15]: inactive
H-FLKALWNVAKSVF-NH2,3.12,1.56,3.12,1.56,1.6,3.12,3.12,0.78,6.25,3.12,6.25,0.78,1.56,25,6.25,12.5,–
H-FLGELWNVAKSVF-NH2,50,–,12.5,50,25,50,50,3.12,–,12.5,–,25,3.12,–,–,–,growth inhibition (GI) [20]: inactive; growth inhibition (GI) [21]: inactive; growth inhibition (GI) [8]: inactive; growth inhibition (GI) [12]: inactive; growth inhibition (GI) [22]: inactive; growth inhibition (GI) [15]: inactive
H-FLGALWNVAKKVF-NH2,1.56,1.56,1.56,1.56,1.6,1.56,1.56,0.39,6.25,3.12,6.25,1.56,0.78,6.25,6.25,6.25,–
H-FLGALWKVAKSVF-NH2,1.56,1.56,1.56,1.56,1.6,1.56,1.56,0.39,6.25,1.56,3.12,1.56,0.78,12.5,1.56,6.25,–
H-FLGALWEVAKSVF-NH2,6.25,12.5,6.25,12.5,1.6,12.5,6.25,0.78,25,12.5,12.5,1.56,1.56,25,50,25,–
H-FLGALWNVAKSVF-NH2,3.12,–,3.12,3.12,6.25,12.5,3.12,0.78,25,6.25,25,1.56,1.56,50,25,25,MIC [23]: 25 µM; MIC [24]: 10 µM; MIC [25]: 20 µM; MIC [26]: 10 µM
H-FLGALWNVWKSVF-NH2,1.56,1.56,3.12,1.56,1.6,1.56,3.12,0.78,6.25,6.25,6.25,1.56,1.56,50,50,50,–
